According to publication PMC5218480 (PLoS ONE, 2017):

Test system: MV-4-11 cells
Experiment: Gene expression microarray analysis (Affymetrix PrimeView) and GSEA
Format: cell-based, human
Design: RFU PODN (11730768_x_at) / Fold change /veh PODN (11730768_x_at) / RFU LINC00158 (11744669_a_at) / Fold change /veh LINC00158 (11744669_a_at) / RFU DUSP10 (11751237_a_at) / Fold change /veh DUSP10 (11751237_a_at) / RFU ID3 (11757404_x_at) / Fold change /veh ID3 (11757404_x_at) / RFU PLEKHG5 (11737974_s_at) / Fold change /veh PLEKHG5 (11737974_s_at) / RFU LRRC4B (11730491_at) / Fold change /veh LRRC4B (11730491_at) / RFU GIMAP4 (11747438_a_at) / Fold change /veh GIMAP4 (11747438_a_at) / RFU KRT8 (11758183_x_at) / Fold change /veh KRT8 (11758183_x_at) / RFU CNN1 (11734310_a_at) / Fold change /veh CNN1 (11734310_a_at) / RFU VPS37D (11726825_at) / Fold change /veh VPS37D (11726825_at) / RFU C10orf10 (11716522_x_at) / Fold change /veh C10orf10 (11716522_x_at) / RFU KIR2DL2 /// KIR2DL4 /// KIR2DL5A /// KIR2DL5B /// KIR2DS1 /// KIR2DS2 /// KIR2DS3 /// KIR2DS4 /// KIR3DL3 /// KIR3DL3 /// KIR3DS1 (11738374_at) / Fold change /veh KIR2DL2 /// KIR2DL4 /// KIR2DL5A /// KIR2DL5B /// KIR2DS1 /// KIR2DS2 /// KIR2DS3 /// KIR2DS4 /// KIR3DL3 /// KIR3DL3 /// KIR3DS1 (11738374_at) / RFU C1QL1 (11718748_at) / Fold change /veh C1QL1 (11718748_at) / RFU TMPRSS4 (11747572_a_at) / Fold change /veh TMPRSS4 (11747572_a_at) / RFU HAMP (11756126_x_at) / Fold change /veh HAMP (11756126_x_at) / RFU RNFT2 (11725882_a_at) / Fold change /veh RNFT2 (11725882_a_at) / RFU NR4A2 (11747474_a_at) / Fold change /veh NR4A2 (11747474_a_at) / RFU ABCC12 (11746883_a_at) / Fold change /veh ABCC12 (11746883_a_at) / RFU TMEM136 (11760407_x_at) / Fold change /veh TMEM136 (11760407_x_at) / RFU CLDN22 /// WWC2 (11732394_at) / Fold change /veh CLDN22 /// WWC2 (11732394_at) / RFU HLA-DPB1 (11760878_x_at) / Fold change /veh HLA-DPB1 (11760878_x_at) / RFU SPINT1 (11716480_a_at) / Fold change /veh SPINT1 (11716480_a_at) / RFU GAP43 (11754022_s_at) / Fold change /veh GAP43 (11754022_s_at) / RFU A4GNT (11735810_at) / Fold change /veh A4GNT (11735810_at) / RFU PRB3 (11715151_x_at) / Fold change /veh PRB3 (11715151_x_at) / RFU TUBB4B (11761932_at) / Fold change /veh TUBB4B (11761932_at) / RFU CAPN14 (11732068_a_at) / Fold change /veh CAPN14 (11732068_a_at) / RFU TMCC2 (11721928_a_at) / Fold change /veh TMCC2 (11721928_a_at) / RFU IRGQ (11745062_a_at) / Fold change /veh IRGQ (11745062_a_at) / RFU FAM174B (11720279_a_at) / Fold change /veh FAM174B (11720279_a_at) / RFU TMPRSS4 (11748680_a_at) / Fold change /veh TMPRSS4 (11748680_a_at) / RFU FAM212B (11763350_a_at) / Fold change /veh FAM212B (11763350_a_at) / RFU PLEKHG5 (11743358_a_at) / Fold change /veh PLEKHG5 (11743358_a_at) / RFU ZSCAN30 (11745921_a_at) / Fold change /veh ZSCAN30 (11745921_a_at) / RFU CMKLR1 (11741424_a_at) / Fold change /veh CMKLR1 (11741424_a_at) / RFU LOC101060620 /// MAPK8IP1 (11723275_at) / Fold change /veh LOC101060620 /// MAPK8IP1 (11723275_at) / RFU SPTSSB (11747773_x_at) / Fold change /veh SPTSSB (11747773_x_at) / RFU PRSS12 (11739890_at) / Fold change /veh PRSS12 (11739890_at) / RFU BIN1 (11741810_x_at) / Fold change /veh BIN1 (11741810_x_at) / RFU WNT11 (11732464_a_at) / Fold change /veh WNT11 (11732464_a_at) / RFU C10orf10 (11716521_a_at) / Fold change /veh C10orf10 (11716521_a_at) / RFU C5orf56 (11738089_at) / Fold change /veh C5orf56 (11738089_at) / RFU CYB561 (11721691_x_at) / Fold change /veh CYB561 (11721691_x_at) / RFU ANKRD19P (11752326_a_at) / Fold change /veh ANKRD19P (11752326_a_at) / RFU OR2T12 /// OR2T33 /// OR2T8 (11738714_s_at) / Fold change /veh OR2T12 /// OR2T33 /// OR2T8 (11738714_s_at) / RFU VCAN (11748164_a_at) / Fold change /veh VCAN (11748164_a_at) / RFU JSRP1 (11732532_at) / Fold change /veh JSRP1 (11732532_at) / RFU KRTAP10-11 (11738290_x_at) / Fold change /veh KRTAP10-11 (11738290_x_at) / RFU MYO3A (11730013_a_at) / Fold change /veh MYO3A (11730013_a_at) / RFU EBF3 (11725865_a_at) / Fold change /veh EBF3 (11725865_a_at) / RFU CAMK2N1 (11719241_x_at) / Fold change /veh CAMK2N1 (11719241_x_at) / RFU C5orf56 (11738088_a_at) / Fold change /veh C5orf56 (11738088_a_at) / RFU OLFML3 (11715873_a_at) / Fold change /veh OLFML3 (11715873_a_at) / RFU LOC100653217 /// NTM (11731650_a_at) / Fold change /veh LOC100653217 /// NTM (11731650_a_at) / RFU MAPK11 (11762145_a_at) / Fold change /veh MAPK11 (11762145_a_at) / RFU FIZ1 (11724087_x_at) / Fold change /veh FIZ1 (11724087_x_at) / RFU OASL (11726364_x_at) / Fold change /veh OASL (11726364_x_at) / RFU SOX15 (11748057_x_at) / Fold change /veh SOX15 (11748057_x_at) / RFU CD79A (11719716_a_at) / Fold change /veh CD79A (11719716_a_at) / RFU HIST1H1D (11736915_at) / Fold change /veh HIST1H1D (11736915_at) / RFU CASKIN2 (11723855_a_at) / Fold change /veh CASKIN2 (11723855_a_at) / RFU LOC730098 (11760151_x_at) / Fold change /veh LOC730098 (11760151_x_at) / RFU OR4N2 (11742367_at) / Fold change /veh OR4N2 (11742367_at) / RFU PRRT2 (11749266_a_at) / Fold change /veh PRRT2 (11749266_a_at) / RFU SNX32 (11753110_a_at) / Fold change /veh SNX32 (11753110_a_at) / RFU CDHR5 (11726645_a_at) / Fold change /veh CDHR5 (11726645_a_at) / RFU RCAN1 (11760418_a_at) / Fold change /veh RCAN1 (11760418_a_at) / RFU FAM167A (11723789_a_at) / Fold change /veh FAM167A (11723789_a_at) / RFU FAM26E (11764081_at) / Fold change /veh FAM26E (11764081_at) / RFU ISYNA1 (11749810_s_at) / Fold change /veh ISYNA1 (11749810_s_at) / RFU ACY1 (11761880_at) / Fold change /veh ACY1 (11761880_at) / RFU 11764098_at / Fold change /veh 11764098_at / RFU SAMD14 (11745864_x_at) / Fold change /veh SAMD14 (11745864_x_at) / RFU NPB (11741838_a_at) / Fold change /veh NPB (11741838_a_at) / RFU TMPRSS6 (11731388_a_at) / Fold change /veh TMPRSS6 (11731388_a_at) / RFU KRTAP10-2 (11738614_at) / Fold change /veh KRTAP10-2 (11738614_at) / RFU ARHGAP8 /// PRR5-ARHGAP8 (11727945_x_at) / Fold change /veh ARHGAP8 /// PRR5-ARHGAP8 (11727945_x_at) / RFU KRTAP5-7 /// NADSYN1 (11734609_at) / Fold change /veh KRTAP5-7 /// NADSYN1 (11734609_at) / RFU RASL12 (11751679_a_at) / Fold change /veh RASL12 (11751679_a_at) / RFU CDKN2B (11736163_a_at) / Fold change /veh CDKN2B (11736163_a_at) / RFU PRF1 (11729649_at) / Fold change /veh PRF1 (11729649_at) / RFU, ZNF638 /// ZNF638-IT1 / Fold change vs veh, ZNF638 /// ZNF638-IT1 / RFU, PANK3 / Fold change vs veh, PANK3 / RFU, SH3YL1 / Fold change vs veh, SH3YL1 / RFU, ZEB2 / Fold change vs veh, ZEB2 / RFU, NRIP1 / Fold change vs veh, NRIP1 / RFU, PTTG1IP / Fold change vs veh, PTTG1IP / RFU, CAPN2 / Fold change vs veh, CAPN2 / RFU, MED14 / Fold change vs veh, MED14 / RFU, SNORA58 / Fold change vs veh, SNORA58 / RFU, C1orf63 / Fold change vs veh, C1orf63 / RFU, LRRFIP1 / Fold change vs veh, LRRFIP1 / RFU, NDUFAF7 / Fold change vs veh, NDUFAF7 / RFU, SLC12A2 / Fold change vs veh, SLC12A2 / RFU, IBTK / Fold change vs veh, IBTK / RFU, ESF1 / Fold change vs veh, ESF1 / Fold change vs veh, TMEM50B / RFU, TAOK1 / Fold change vs veh, TAOK1 / RFU, ACBD3 / Fold change vs veh, ACBD3 / RFU, TMA16 / Fold change vs veh, TMA16 / RFU, RWDD3 / Fold change vs veh, RWDD3 / RFU, BCAT1 / Fold change vs veh, BCAT1 / RFU, EDEM3 / Fold change vs veh, EDEM3 / RFU, TMEM33 / Fold change vs veh, TMEM33 / RFU, WDR75 / Fold change vs veh, WDR75 / RFU, AHCTF1 / Fold change vs veh, AHCTF1 / RFU, TFRC / Fold change vs veh, TFRC / RFU, ZDHHC17 / Fold change vs veh, ZDHHC17 / RFU, NOM1 / Fold change vs veh, NOM1 / RFU, ARL8B / Fold change vs veh, ARL8B / RFU, ZBTB11 / Fold change vs veh, ZBTB11 / RFU, TAMM41 / Fold change vs veh, TAMM41 / RFU, KIAA1704 /// LOC100996395 / Fold change vs veh, KIAA1704 /// LOC100996395 / RFU, ING1 / Fold change vs veh, ING1 / RFU, TRMT61B / Fold change vs veh, TRMT61B / RFU, FUBP3 / Fold change vs veh, FUBP3 / RFU, TP53 / Fold change vs veh, TP53 / RFU, TNKS2 / Fold change vs veh, TNKS2 / RFU, ZFP14 / Fold change vs veh, ZFP14 / RFU, ACTR2 / Fold change vs veh, ACTR2 / RFU, PPP3R1 / Fold change vs veh, PPP3R1 / RFU, PIK3R1 / Fold change vs veh, PIK3R1 / RFU, HNRNPA1 / Fold change vs veh, HNRNPA1 / RFU, RNF170 / Fold change vs veh, RNF170 / RFU, ZNF28 / Fold change vs veh, ZNF28 / RFU, RNGTT / Fold change vs veh, RNGTT / RFU, OGT / Fold change vs veh, OGT / RFU, BRD1 / Fold change vs veh, BRD1 / RFU, MARS / Fold change vs veh, MARS / RFU, ZNF655 / Fold change vs veh, ZNF655 / RFU, FAHD1 / Fold change vs veh, FAHD1 / RFU, BDP1 / Fold change vs veh, BDP1 / RFU, LRRCC1 / Fold change vs veh, LRRCC1 / RFU, ARID1A / Fold change vs veh, ARID1A / RFU, ZNF146 / Fold change vs veh, ZNF146 / RFU, ZNF330 / Fold change vs veh, ZNF330 / RFU, GPN3 / Fold change vs veh, GPN3 / RFU, C9orf123 / Fold change vs veh, C9orf123 / RFU, N4BP2L2 / Fold change vs veh, N4BP2L2 / RFU, ARFIP1 / Fold change vs veh, ARFIP1 / RFU, FAM179B / Fold change vs veh, FAM179B / RFU, BCL10 / Fold change vs veh, BCL10 / RFU, UHRF1BP1L / Fold change vs veh, UHRF1BP1L / RFU, BET1 / Fold change vs veh, BET1 / RFU, CNOT2 / Fold change vs veh, CNOT2 / RFU, ZNF268 / Fold change vs veh, ZNF268 / Fold change vs veh, ZNF507 / RFU, DGCR2 / Fold change vs veh, DGCR2 / RFU, WDSUB1 / Fold change vs veh, WDSUB1 / Fold change vs veh, HSP90B1 /// MIR3652 / RFU, ADSS / Fold change vs veh, ADSS / RFU, GK / Fold change vs veh, GK / RFU, ZNF148 / Fold change vs veh, ZNF148 / RFU, TAF9 / Fold change vs veh, TAF9 / RFU, SLC1A5 / Fold change vs veh, SLC1A5 / RFU, SLMO2 / Fold change vs veh, SLMO2 / RFU, ABCC4 / Fold change vs veh, ABCC4 / RFU, LOC101060439 /// RAP1B / Fold change vs veh, LOC101060439 /// RAP1B / RFU, RFX7 / Fold change vs veh, RFX7 / RFU, GTPBP10 / Fold change vs veh, GTPBP10 / RFU, CNEP1R1 / Fold change vs veh, CNEP1R1 / RFU, BIVM-ERCC5 /// ERCC5 / Fold change vs veh, BIVM-ERCC5 /// ERCC5 / RFU, ILF3 / Fold change vs veh, ILF3 / RFU 11762660_at / Fold change /veh 11762660_at / RFU VCAN (11757783_s_at) / Fold change /veh VCAN (11757783_s_at) / RFU DDX43 (11728927_at) / Fold change /veh DDX43 (11728927_at) / RFU KRT8 (11758188_x_at) / Fold change /veh KRT8 (11758188_x_at) / RFU NKD1 (11759106_at) / Fold change /veh NKD1 (11759106_at) / RFU SRD5A1 (11742802_a_at) / Fold change /veh SRD5A1 (11742802_a_at) / RFU TPSAB1 /// TPSB2 (11721975_s_at) / Fold change /veh TPSAB1 /// TPSB2 (11721975_s_at) / RFU GSTM3 (11746129_a_at) / Fold change /veh GSTM3 (11746129_a_at) / RFU IL23R (11737362_x_at) / Fold change /veh IL23R (11737362_x_at) / RFU TMEM51 (11727254_a_at) / Fold change /veh TMEM51 (11727254_a_at) / RFU PIWIL2 (11732686_x_at) / Fold change /veh PIWIL2 (11732686_x_at) / RFU ORM1 (11744905_x_at) / Fold change /veh ORM1 (11744905_x_at) / RFU CCDC152 (11743942_at) / Fold change /veh CCDC152 (11743942_at) / RFU ECM1 (11717891_a_at) / Fold change /veh ECM1 (11717891_a_at) / RFU IL23R (11748794_a_at) / Fold change /veh IL23R (11748794_a_at) / RFU TNFAIP8L3 (11732012_x_at) / Fold change /veh TNFAIP8L3 (11732012_x_at) / RFU MBOAT4 (11741988_at) / Fold change /veh MBOAT4 (11741988_at) / RFU 11764193_at / Fold change /veh 11764193_at / RFU TMEM53 (11763286_at) / Fold change /veh TMEM53 (11763286_at) / RFU MAGEB2 (11727129_at) / Fold change /veh MAGEB2 (11727129_at) / RFU TMEM200A (11744735_a_at) / Fold change /veh TMEM200A (11744735_a_at) / RFU CCDC152 (11751479_a_at) / Fold change /veh CCDC152 (11751479_a_at) / RFU FAM211A (11726209_a_at) / Fold change /veh FAM211A (11726209_a_at) / RFU RGS16 (11746705_a_at) / Fold change /veh RGS16 (11746705_a_at) / RFU VCAN (11755009_s_at) / Fold change /veh VCAN (11755009_s_at) / RFU RHOB (11743442_s_at) / Fold change /veh RHOB (11743442_s_at) / RFU RGS16 (11720943_a_at) / Fold change /veh RGS16 (11720943_a_at) / RFU RGS16 (11720944_at) / Fold change /veh RGS16 (11720944_at) / RFU, VPS4B / Fold change vs veh, VPS4B / RFU, CREB1 / Fold change vs veh, CREB1 / RFU, DNAJC13 / Fold change vs veh, DNAJC13 / RFU, GNAQ / Fold change vs veh, GNAQ / RFU, CDK5R1 / Fold change vs veh, CDK5R1 / RFU, ZRANB3 / Fold change vs veh, ZRANB3 / RFU, CUL4A / Fold change vs veh, CUL4A / RFU, CCNY / Fold change vs veh, CCNY / RFU, UFL1 / Fold change vs veh, UFL1 / RFU, COG3 / Fold change vs veh, COG3 / RFU, DIAPH2 / Fold change vs veh, DIAPH2 / RFU, SKA2 / Fold change vs veh, SKA2 / RFU, AFF3 / Fold change vs veh, AFF3 / RFU, LMF1 / Fold change vs veh, LMF1 / RFU, IPO11 / Fold change vs veh, IPO11 / RFU, DFFB / Fold change vs veh, DFFB / RFU, FOXP1 / Fold change vs veh, FOXP1 / RFU, CARD8 / Fold change vs veh, CARD8 / RFU, STRN3 / Fold change vs veh, STRN3 / RFU, ADK / Fold change vs veh, ADK / RFU, RASSF2 / Fold change vs veh, RASSF2 / RFU, WIPF1 / Fold change vs veh, WIPF1 / RFU, LARP1B / Fold change vs veh, LARP1B / RFU, RASA1 / Fold change vs veh, RASA1 / RFU, RB1 / Fold change vs veh, RB1 / RFU, PPFIA1 / Fold change vs veh, PPFIA1 / RFU, MAT2A / Fold change vs veh, MAT2A / RFU, CCT5 / Fold change vs veh, CCT5 / RFU, WDR92 / Fold change vs veh, WDR92 / RFU, CUX1 / Fold change vs veh, CUX1 / RFU, TTC7A / Fold change vs veh, TTC7A / RFU, TMEM135 / Fold change vs veh, TMEM135 / RFU, DEPTOR / Fold change vs veh, DEPTOR / RFU, CPM / Fold change vs veh, CPM / RFU, DNAJB6 / Fold change vs veh, DNAJB6 / RFU, CACNA2D3 / Fold change vs veh, CACNA2D3 / RFU, DTX4 / Fold change vs veh, DTX4 / RFU, TFCP2 / Fold change vs veh, TFCP2 / RFU, GMCL1 /// GMCL1P1 / Fold change vs veh, GMCL1 /// GMCL1P1 / RFU, AEBP2 / Fold change vs veh, AEBP2 / RFU, SNHG1 /// SNORD22 /// SNORD25 /// SNORD26 /// SNORD27 /// SNORD28 /// SNORD29 /// SNORD31 / Fold change vs veh, SNHG1 /// SNORD22 /// SNORD25 /// SNORD26 /// SNORD27 /// SNORD28 /// SNORD29 /// SNORD31 / Fold change (Aza/veh), C12orf56 (ProbeSet 11735607_a_at) / Fold change (ACY-1035/veh), C12orf56 (ProbeSet 11735607_a_at) / Fold change (Aza/veh), FGFR1OP (ProbeSet 11751329_s_at) / Fold change (ACY-1035/veh), FGFR1OP (ProbeSet 11751329_s_at) / Fold change (Aza/veh), VPS36 (ProbeSet 11739960_a_at) / Fold change (ACY-1035/veh), VPS36 (ProbeSet 11739960_a_at) / RFU SYPL1 (11715823_x_at) / Fold change /veh SYPL1 (11715823_x_at) / RFU IGFBP7 (11715501_s_at) / Fold change /veh IGFBP7 (11715501_s_at) / RFU REEP3 (11722064_at) / Fold change /veh REEP3 (11722064_at) / RFU IGLL1 (11728026_x_at) / Fold change /veh IGLL1 (11728026_x_at): dose or concentration left out as unconfirmed
Conditions: MV-4-11 cells, 48 hours

In the case of `Nc1ncn([C@@H]2O[C@H](CO)[C@@H](O)[C@H]2O)c(=O)n1` [azacitidine], the “Fold change /veh 11764193_at” value was 1.69.
